# Results from US11103486B2, “Treatment of autoimmune disorders and infections using antagonists of SGK1 activity” (THE JOHNS HOPKINS UNIVERSITY, priority 2011, dated 2021).
# Where a SMILES comes first, the peptide text is derived from it. The star is where a group is joined. Cbz = O=C(OCc1ccccc1)*
# Test system: JunB
# Assay: JunB protein levels by immunoblot of nuclear extracts of CD4+ T cells activated under Th2 skewing conditions
# Format: cell-based, mice
# Details: T-SGK1−/− CD4+ T cells activated under Th2 skewing conditions; MG132 added during the final 2 hours of stimulation
# Protocol: (11A) Nuclear and cytoplasmic extracts from Wt and T-SGK1−/− CD4+ T cells. Cells were purified by magnetic separation and stimulated for 72 hours in vitro with anti-CD3 and anti-CD28 and either (Th1) IL-12, IFN-γ, and anti-IL-4, or (Th2) IL-4, anti-IFN-γ, and anti-IL-12p40 skewing conditions. Cells were lysed and separated into nuclear and cytoplasmic fractions. Nuclear extracts were blotted for the expression of JunB, and Lamin B is included as a loading control. Cytosolic fractions were blotted to measure the E3 ligase activity of NEDD4L (S342), and actin is included as a loading control. (11B) Nuclear extract of Wt and T-SGK1−/− treated with MG132. As in A, but with the addition of the proteasome inhibitor MG-132 during the final 2 hours of stimulation. Nuclear fractions were blotted for JunB. (11C) Immunoprecipitates (IPs) of JunB from Wt and T-SGK1−/− CD4+ T cells skewed with IL4 and treated with MG132. As in B, but nuclear fractions were subject to IP with JunB antibody. […] Fold induction of long and short isoforms of TCF1 over no stimulation control, as analyzed by quantitative polymerase chain reaction. […] Cells were restimulated for 4 hours with phorbol 12-myristate 13-acetate (PMA) and ionomycin in the presence of a protein transport inhibitor, and analyzed for production of IFN-γ by intracellular staining. […]
smiles,measurement,value
CC(C)C[C@@H](C=O)NC(=O)[C@H](CC(C)C)NC(=O)[C@H](CC(C)C)NC(=O)OCc1ccccc1 [MG132] (Cbz-Leu-Leu-Leu-aldehyde),"JunB levels (immunoblot, nuclear fraction)",JunB levels increased
